Values quoted from earlier work in US12011496B2, “Topical macqui berry formulation” (Tracie Martyn International, Inc., priority 2005, dated 2024).

Assays:
[1] = using only natural ingredients (botanicals, antioxidants, coffe oil and microfine zinc oxide)
[2] = animal studies
[3] = antioxidant properties

## COc1ccc(C=CC(=O)OCCC(C)C)cc1 [isoamyl-p-methoxycinnamate]
[1]
  spf: greater than 30

## NCCC(=O)N[C@@H](Cc1cnc[nH]1)C(=O)O [Carnosine, β-alanyl-L-histidine]
[2]
  safety at dosages above 500 mg/kg body weight: safe

## C=CCc1cc(OC)c2c(c1)OCO2 [myristicin, 3-methoxy,4,5-methylendioxy-allylbenzene]
other
  oral psychotropic dose: 400 mg

## O=C(/C=C/c1ccc(O)c(O)c1)O[C@H](Cc1ccc(O)c(O)c1)C(=O)O [Rosmarinic acid]
[3]
  IC50: 740 nM
